Data reported in PubChem BioAssay AID248 (DTP/NCI, 2004).
Where “and” joins values, the source holds several entries; their conditions need not be identical. Equal entries are not always repeated. Inconclusive results and toxic doses are left out. No stated cut-off is given here; in the data, active means T/C of 150% or more; inactive means T/C below 125%.

Test system: L1210 leukemia ip in BDF1 mice, survival T/C
Assay: NCI In Vivo Anticancer Drug Screen. Data for tumor model L1210 Leukemia (intraperitoneal) in B6D2F1 (BDF1) mice
Conditions: endpoint: mean survival time, higher = longer survival
Outline: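 Each compound was tested against a transplantable tumor grown in mice. The endpoint was survival, with treated animals benchmarked against vehicle controls as a simple ratio.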

[1] = dose: 100.0 mg/kg/injection, schedule: Q01DX001 (ip), vehicle: saline
[2] = dose: 200.0 mg/kg/injection, schedule: Q01DX001 (ip), vehicle: saline
[3] = dose: 400.0 mg/kg/injection, schedule: Q01DX001 (ip), vehicle: saline
[4] = dose: 50.0 mg/kg/injection, schedule: Q01DX009 (ip), vehicle: saline with Tween-80
[5] = dose: 100.0 mg/kg/injection, schedule: Q01DX009 (ip), vehicle: saline with Tween-80
[6] = dose: 200.0 mg/kg/injection, schedule: Q01DX009 (ip), vehicle: saline with Tween-80
[7] = dose: 400.0 mg/kg/injection, schedule: Q04DX002 (ip), vehicle: saline with Tween-80
[8] = dose: 100.0 mg/kg/injection, schedule: Q04DX003 (ip), vehicle: saline with Tween-80
[9] = dose: 200.0 mg/kg/injection, schedule: Q04DX003 (ip), vehicle: saline with Tween-80
[10] = dose: 400.0 mg/kg/injection, schedule: Q04DX003 (ip), vehicle: saline with Tween-80
[11] = dose: 12.5 mg/kg/injection, schedule: Q01DX009 (ip), vehicle: saline with Tween-80
[12] = dose: 25.0 mg/kg/injection, schedule: Q01DX009 (ip), vehicle: saline with Tween-80
[13] = dose: 50.0 mg/kg/injection, schedule: Q04DX003 (ip), vehicle: Klucel (hydroxypropylcellulose) (HPC)
[14] = dose: 100.0 mg/kg/injection, schedule: Q04DX003 (ip), vehicle: Klucel (hydroxypropylcellulose) (HPC)
[15] = dose: 200.0 mg/kg/injection, schedule: Q04DX003 (ip), vehicle: Klucel (hydroxypropylcellulose) (HPC)
[16] = dose: 100.0 mg/kg/injection, schedule: Q01DX001 (ip), vehicle: carboxymethylcellulose (CMC)
[17] = dose: 200.0 mg/kg/injection, schedule: Q01DX001 (ip), vehicle: carboxymethylcellulose (CMC)
[18] = dose: 400.0 mg/kg/injection, schedule: Q01DX001 (ip), vehicle: carboxymethylcellulose (CMC)
[19] = dose: 100.0 mg/kg/injection, schedule: Q04DX003 (ip), vehicle: saline
[20] = dose: 200.0 mg/kg/injection, schedule: Q04DX003 (ip), vehicle: saline
[21] = dose: 400.0 mg/kg/injection, schedule: Q04DX003 (ip), vehicle: saline
[22] = dose: 100.0 mg/kg/injection, schedule: Q01DX009 (ip), vehicle: saline
[23] = dose: 200.0 mg/kg/injection, schedule: Q01DX009 (ip), vehicle: saline

Measured: T/C

C=CCNC(=O)c1ccc(C(=O)NCC=C)cc1
inactive: [1] 102 % of control | [2] 102 % of control | [3] 98 % of control

C/[N+]([O-])=N\Nc1c(Br)cc(Br)cc1Br
inactive: [4] 105 % of control | [5] 102 % of control | [6] 105 % of control

[Si]c1cccc2ccccc12
inactive: dose: 25.6 mg/kg/injection, schedule: Q04DX002 (ip), vehicle: saline with Tween-80 97 % of control | dose: 64.0 mg/kg/injection, schedule: Q04DX002 (ip), vehicle: saline with Tween-80 97 % of control | dose: 160.0 mg/kg/injection, schedule: Q04DX002 (ip), vehicle: saline with Tween-80 97 % of control | [7] 101 % of control

COc1ccc(N=Cc2ccc(OC(=O)c3ccccc3)c(OC)c2)cc1
inactive: dose: 100.0 mg/kg/injection, schedule: Q04DX002 (ip), vehicle: saline with Tween-80 100 % of control | dose: 200.0 mg/kg/injection, schedule: Q04DX002 (ip), vehicle: saline with Tween-80 100 % of control | [7] 93 % of control

Nc1nc(=S)[nH]c2nsnc12
inactive: [8] 98 % of control | [9] 96 % of control | [10] 103 % of control

O=C(Nc1ccc(Cl)c(C(F)(F)F)c1)Oc1ccccn1
inactive: [11] 101 % of control | [12] 99 % of control | [4] 92 % of control | [5] 93 % of control

Cc1cc(NS(=O)(=O)c2ccc(N=Nc3cc(N=Nc4ccccc4)c(N)nc3N)cc2)nc(C)n1
inactive: [1] 100 % of control | [2] 100 % of control | [3] 105 % of control

S=c1cc[nH]c(=S)[nH]1
inactive: [13] 97 % of control | [14] 97 % of control | [15] 95 % of control

COc1ccc(NC(=O)/C=C/c2ccc([N+](=O)[O-])cc2)cc1S(=O)(=O)F
inactive: [14] 98 % of control | [15] 107 % of control | dose: 400.0 mg/kg/injection, schedule: Q04DX003 (ip), vehicle: Klucel (hydroxypropylcellulose) (HPC) 98 % of control

O=C(Nc1ccc2ccccc2c1)c1ccc2c(c1)C(=O)OC2=O
inactive: [16] 97 % of control and 100 % of control | dose: 100.0 mg/kg/injection, schedule: Q01DX009 (ip), vehicle: carboxymethylcellulose (CMC) 97 % of control and 98 % of control | dose: 100.0 mg/kg/injection, schedule: Q04DX002 (ip), vehicle: carboxymethylcellulose (CMC) 96 % of control and 103 % of control | dose: 100.0 mg/kg/injection, schedule: Q04DX003 (ip), vehicle: carboxymethylcellulose (CMC) 100 % of control and 91 % of control | [17] 93 % of control and 100 % of control | dose: 200.0 mg/kg/injection, schedule: Q01DX009 (ip), vehicle: carboxymethylcellulose (CMC) 96 % of control and 100 % of control | dose: 200.0 mg/kg/injection, schedule: Q04DX002 (ip), vehicle: carboxymethylcellulose (CMC) 99 % of control and 86 % of control | dose: 200.0 mg/kg/injection, schedule: Q04DX003 (ip), vehicle: carboxymethylcellulose (CMC) 92 % of control and 91 % of control | [18] 93 % of control and 97 % of control | dose: 400.0 mg/kg/injection, schedule: Q01DX009 (ip), vehicle: carboxymethylcellulose (CMC) 100 % of control and 104 % of control | dose: 400.0 mg/kg/injection, schedule: Q04DX002 (ip), vehicle: carboxymethylcellulose (CMC) 95 % of control and 90 % of control | dose: 400.0 mg/kg/injection, schedule: Q04DX003 (ip), vehicle: carboxymethylcellulose (CMC) 88 % of control and 89 % of control

O=C(O)C1CCCN1CCc1ccccc1 (stereo unspecified)
inactive: [19] 107 % of control | [20] 105 % of control | [21] 97 % of control

CC(=O)Nc1ccccc1C#N
inactive: dose: 100.0 mg/kg/injection, schedule: Q04DX003 (ip), vehicle: saline sonified 104 % of control | dose: 200.0 mg/kg/injection, schedule: Q04DX003 (ip), vehicle: saline sonified 101 % of control | dose: 400.0 mg/kg/injection, schedule: Q04DX003 (ip), vehicle: saline sonified 97 % of control

CC(C)(C)CC(C)(C)CC(C)(C)NCCCN
inactive: [11] 102 % of control | [12] 93 % of control | dose: 25.0 mg/kg/injection, schedule: Q04DX003 (ip), vehicle: saline with Tween-80 90 % of control | dose: 50.0 mg/kg/injection, schedule: Q04DX003 (ip), vehicle: saline with Tween-80 97 % of control | [8] 96 % of control

CC1(c2ccc(O)cc2)CCC(C(C)(C)c2ccc(O)cc2)CC1 (stereo unspecified)
inactive: [5] 107 % of control | [6] 107 % of control

O=C(N/N=C/C1CC2C=CC1C2)c1ccncc1 (stereo unspecified)
inactive: [12] 100 % of control | [4] 102 % of control | [5] 95 % of control and 103 % of control

COc1cc2cc(-c3cc(OC)c(OC)c(OC)c3)c3c(c2cc1OC)CNC3=O
inactive: [22] 90 % of control | [19] 93 % of control | [23] 90 % of control | [20] 101 % of control | [21] 101 % of control

c1ccc(-c2ccc([Si](c3ccccc3)(c3ccc(-c4ccccc4)cc3)c3ccc(-c4ccccc4)cc3)cc2)cc1
inactive: dose: 50.0 mg/kg/injection, schedule: Q01DX009 (ip), vehicle: Klucel (hydroxypropylcellulose) (HPC) 91 % of control | [13] 93 % of control | dose: 100.0 mg/kg/injection, schedule: Q01DX009 (ip), vehicle: Klucel (hydroxypropylcellulose) (HPC) 93 % of control | [14] 89 % of control | dose: 200.0 mg/kg/injection, schedule: Q01DX009 (ip), vehicle: Klucel (hydroxypropylcellulose) (HPC) 93 % of control | [15] 88 % of control

N#Cc1nn(CCCl)c(=O)c2ccccc12
inactive: dose: 100.0 mg/kg/injection, schedule: Q01DX001 (ip), vehicle: alcohol 98 % of control | dose: 100.0 mg/kg/injection, schedule: Q04DX003 (ip), vehicle: alcohol 95 % of control | dose: 200.0 mg/kg/injection, schedule: Q01DX001 (ip), vehicle: alcohol 107 % of control | dose: 200.0 mg/kg/injection, schedule: Q04DX003 (ip), vehicle: alcohol 97 % of control | dose: 400.0 mg/kg/injection, schedule: Q01DX001 (ip), vehicle: alcohol 107 % of control | dose: 400.0 mg/kg/injection, schedule: Q04DX003 (ip), vehicle: alcohol 87 % of control

CN(CCNC(=O)C1C(c2ccccc2)C1c1ccccc1)C(=O)C1C(c2ccccc2)C1c1ccccc1 (stereo unspecified)
inactive: dose: 100.0 mg/kg/injection, schedule: Q04DX002 (ip), vehicle: Klucel (hydroxypropylcellulose) (HPC) 95 % of control | dose: 200.0 mg/kg/injection, schedule: Q04DX002 (ip), vehicle: Klucel (hydroxypropylcellulose) (HPC) 89 % of control | dose: 400.0 mg/kg/injection, schedule: Q04DX002 (ip), vehicle: Klucel (hydroxypropylcellulose) (HPC) 89 % of control

CCCCCCC1CC2CCCCC2CC1CCCC (stereo unspecified)
inactive: [16] 96 % of control | [17] 100 % of control | [18] 94 % of control

O=C(O)C1CCC2SC(F)(F)C(F)(F)C2C1 (stereo unspecified)
inactive: [8] 98 % of control | [9] 96 % of control | [10] 98 % of control

CCOC(=O)c1ccc(=O)n(C)c1
inactive: [22] 102 % of control | [23] 96 % of control | dose: 400.0 mg/kg/injection, schedule: Q01DX009 (ip), vehicle: saline 98 % of control
